Results reported in patent US8030354B2, “Substituted biphenyl GPR40 modulators” (Amgen Inc., priority 2007, dated 2011).
pEC50: −log10 of the molar value.

Target: GPR40 (Homo sapiens, UniProt O14842)
Assay: Cell-based aequorin assay (CHO cells stably expressing GPR40 and aequorin)
Design: expressed in transfected cells; host or cells: CHO cells stably transfected with GPR40 and aequorin
Conditions: activation of human GPR40, CHO cells, 0.01% HSA
Outline: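 CHO cells stably co-expressing GPR40 and aequorin, loaded with coelenterazine (1 ug/mL, 2 h, room temperature) in H/HBSS with 20 mM Hepes and 0.01% fatty acid-free HSA. Serially diluted compounds added; luminescence recorded over 20 s. EC50 from dose-response of maximum relative light units.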

Sequence of GPR40 (O14842 whole entry): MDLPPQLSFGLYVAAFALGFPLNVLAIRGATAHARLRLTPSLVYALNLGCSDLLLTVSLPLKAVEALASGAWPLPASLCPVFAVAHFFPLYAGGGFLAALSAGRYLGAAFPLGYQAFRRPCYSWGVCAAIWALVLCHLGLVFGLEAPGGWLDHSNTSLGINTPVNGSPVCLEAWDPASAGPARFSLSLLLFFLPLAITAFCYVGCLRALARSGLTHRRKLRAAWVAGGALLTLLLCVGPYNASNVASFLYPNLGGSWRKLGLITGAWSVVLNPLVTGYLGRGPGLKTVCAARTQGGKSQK

Row | pEC50 | SMILES
1 | 5.00 to 6.00 | CCC(CC(=O)O)c1ccc(F)c(OCc2ccc(-c3cc(OC)ccc3F)c(C(C)(C)C)c2)c1 (single isomer, unassigned) [Example 86.2, (3R)-3-(3-(((2-(1,1-Dimethylethyl)-2′-fluoro-5′-(methyloxy)-1,1′-biphenyl-4-yl)methyl)oxy)-4-fluorophenyl)pentanoic acid or (3S)-3-(3-(((2-(1,1-dimethylethyl)-2′-fluoro-5′-(methyloxy)-1,1′-biphenyl-4-yl)methyl)oxy)-4-fluorophenyl)pentanoic acid]
2 | 5.00 to 6.00 | CCCC(CC(=O)O)c1cccc(OCc2ccc(-c3cc(OC)ccc3F)c(CN3CCCC3)c2)c1 (single isomer, unassigned) [Example 67.28, (3R)-3-(3-(((2′-Fluoro-5′-(methyloxy)-2-(1-pyrrolidinylmethyl)-1,1′-biphenyl-4-yl)methyl)oxy)phenyl)hexanoic acid or (3S)-3-(3-(((2′-fluoro-5′-(methyloxy)-2-(1-pyrrolidinylmethyl)-1,1′-biphenyl-4-yl)methyl)oxy)phenyl)hexanoic acid]
3 | 5.00 to 6.00 | CCC(CC(=O)O)c1cccc(OCc2ccc(-c3cc(OC)ccc3F)c(C3CCCC3(C)C)c2)c1 (single isomer, unassigned) [Example 98.2]
4 | 6.00 to 7.00 | COc1cccc(-c2ccc(COc3cccc(C(CC(=O)O)C4CCC4)c3)cc2C2CCCC2(C)C)c1 (single isomer, unassigned) [Example 79.5]
5 | 6.00 to 7.00 | CCCCCOc1cc(COc2cccc(C(CCC)CC(=O)O)c2)ccc1-c1cc(OC)ccc1F (single isomer, unassigned) [Example 67.1, (3R)-3-(3-(((2′-Fluoro-5′-(methyloxy)-2-(pentyloxy)-1,1′-biphenyl-4-yl)methyl)oxy)phenyl)hexanoic acid or (3S)-3-(3-(((2∝-fluoro-5′-(methyloxy)-2-(pentyloxy)-1,1′-biphenyl-4-yl)methyl)oxy)phenyl)hexanoic acid]
6 | 5.00 to 6.00 | CCC[C@H](CC(=O)O)c1cccc(OCc2ccc(-c3cc(OC)ccc3F)c(COCC=C(C)C)c2)c1 (single isomer, unassigned) [Example 67.27, (3R)-3-(3-(((2′-Fluoro-2-(((3-methyl-2-butenyl)oxy)methyl)-5′-(methyloxy)-1,1′-biphenyl-4-yl)methyl)oxy)phenyl)hexanoic acid or (3S)-3-(3-(((2′-fluoro-2-(((3-methyl-2-butenyl)oxy)methyl)-5′-(methyloxy)-1,1′-biphenyl-4-yl)methyl)oxy)phenyl)hexanoic acid]
7 | 5.00 to 6.00 | CCC[C@H](CC(=O)O)c1cccc(OCc2ccc(-c3ccccc3F)c(C(C)(C)C)c2)c1 (single isomer, unassigned) [Example 67.18, (3R)-3-(3-(((2-(1,1-Dimethylethyl)-2′-fluoro-1,1′-biphenyl-4-yl)methyl)oxy)phenyl)hexanoic acid or (3S)-3-(3-(((2-(1,1-dimethylethyl)-2′-fluoro-1,1′-biphenyl-4-yl)methyl)oxy)phenyl)hexanoic acid]
8 | 5.00 to 6.00 | CC1(C)CCC[C@@H]1c1cc(COc2cccc([C@@H](CC(=O)O)C3CC3)c2)ccc1-c1cc(OCC(F)(F)F)ccc1F (single isomer, unassigned) [Example 66.23]
9 | 6.00 to 7.00 | CCCC(CC(=O)O)c1cccc(OCc2ccc(-c3cc(OC)ccc3F)c(C3CCCC3(C)C)c2)c1 (single isomer, unassigned) [Example 80.3]
10 | 5.00 to 6.00 | COc1ccc(F)c(-c2ccc(COc3cccc([C@@H](CC(=O)O)C4CC4)c3)cc2C(C2CC2)N(C)C)c1 (single isomer, unassigned) [Example 66.38, (3S)-3-Cyclopropyl-3-(3-(((2-(cyclopropyl(dimethylamino)methyl)-2′-fluoro-5′-(methyloxy)-1,1′-biphenyl-4-yl)methyl)oxy)phenyl)propanoic acid or (3R)-3-cyclopropyl-3-(3-(((2-(cyclopropyl(dimethylamino)methyl)-2′-fluoro-5′-(methyloxy)-1,1′-biphenyl-4-yl)methyl)oxy)phenyl)propanoic acid]
11 | 6.00 to 7.00 | COc1ccc(F)c(-c2ccc(COc3cccc([C@H](C)CC(=O)O)c3)cc2OCC(C)C)c1 (single isomer, unassigned) [Example 29, (3R)-3-(3-(((2′-Fluoro-5′-(methyloxy)-2-((2-methylpropyl)oxy)-1,1′-biphenyl-4-yl)methyl)oxy)phenyl)butanoic acid or (3S)-3-(3-(((2′-fluoro-5′-(methyloxy)-2-((2-methylpropyl)oxy)-1,1′-biphenyl-4-yl)methyl)oxy)phenyl)butanoic acid]
12 | 6.00 to 7.00 | CC1(C)CCC[C@@H]1c1cc(COc2cccc([C@@H](CC(=O)O)C3CC3)c2)ccc1-c1cc(OC(F)(F)F)ccc1F (single isomer, unassigned) [Example 66.29]
13 | 6.00 to 7.00 | CC1(C)CCC[C@@H]1c1cc(COc2cccc([C@@H](CC(=O)O)C3CC3)c2)ccc1-c1cccc(OC2CC2)c1 (single isomer, unassigned) [Example 66.48]
14 | 6.00 to 7.00 | CCCCCCOc1cc(COc2cccc([C@H](CCC)CC(=O)O)c2)ccc1-c1cc(OC)ccc1F (single isomer, unassigned) [Example 67.15, (3R)-3-(3-(((2′-Fluoro-2-(hexyloxy)-5′-(methyloxy)-1,1′-biphenyl-4-yl)methyl)oxy)phenyl)hexanoic acid or (3S)-3-(3-(((2′-fluoro-2-(hexyloxy)-5′-(methyloxy)-1,1′-biphenyl-4-yl)methyl)oxy)phenyl)hexanoic acid]
15 | 5.00 to 6.00 | COc1ccc(F)c(-c2ccc(COc3cccc(C4(CC(=O)O)CCCCC4)c3)cc2C(C)(C)C)c1 [Example 105.2, {1-[3-(2-tert-Butyl-2′-fluoro-5′-methoxy-biphenyl-4-ylmethoxy)-phenyl]-cyclohexyl}-acetic acid]
16 | 5.00 to 6.00 | COc1ccc(F)c(-c2ccc(COc3cccc(C(CC(=O)O)C4CC4)c3)cc2CN2CCCCCC2)c1 (single isomer, unassigned) [Example 66.73, (3S)-3-(3-(((2-(1-Azepanylmethyl)-2′-fluoro-5′-(methyloxy)-1,1′-biphenyl-4-yl)methyl)oxy)phenyl)-3-cyclopropylpropanoic acid or (3R)-3-(3-(((2-(1-azepanylmethyl)-2′-fluoro-5′-(methyloxy)-1,1′-biphenyl-4-yl)methyl)oxy)phenyl)-3-cyclopropylpropanoic acid]
17 | 5.00 to 6.00 | CCCOc1cc(COc2cccc([C@H](C)CC(=O)O)c2)ccc1-c1cc(OC)ccc1F (single isomer, unassigned) [Example 27, (3R)-3-(3-(((2′-Fluoro-5′-(methyloxy)-2-(propyloxy)-1,1′-biphenyl-4-yl)methyl)oxy)phenyl)butanoic acid or (3S)-3-(3-(((2′-fluoro-5′-(methyloxy)-2-(propyloxy)-1,1′-biphenyl-4-yl)methyl)oxy)phenyl)butanoic acid]
18 | 6.00 to 7.00 | COc1ccc(F)c(-c2ccc(COc3cccc(C(CC(=O)O)CC4CC4)c3)cc2C2OCCCC2(C)C)c1 (single isomer, unassigned) [Example 69.27, (R)-4-Cyclopropyl-3-{3-[2-(3,3-dimethyl-tetrahydro-pyran-2-yl)-2′-fluoro-5′-methoxy-biphenyl-4-ylmethoxy]-phenyl}-butyric acid or (S)-4-cyclopropyl-3-{3-[2-(3,3-dimethyl-tetrahydro-pyran-2-yl)-2′-fluoro-5′-methoxy-biphenyl-4-ylmethoxy]-phenyl}-butyric acid]
19 | 6.00 to 7.00 | CCCC(CC(=O)O)c1cccc(OCc2ccc(-c3cc(OC)ccc3F)c(C(C)(C)C)c2F)c1 (single isomer, unassigned) [Example 67.3, (3R)-3-(3-(((2-(1,1-Dimethylethyl)-2′,3-difluoro-5′-(methyloxy)-1,1′-biphenyl-4-yl)methyl)oxy)phenyl)hexanoic acid or (3S)-3-(3-(((2-(1,1-dimethylethyl)-2′,3-difluoro-5′-(methyloxy)-1,1′-biphenyl-4-yl)methyl)oxy)phenyl)hexanoic acid]
20 | 6.00 to 7.00 | CCCCOc1cc(COc2cccc(C(CC(=O)O)CC3CC3)c2)ccc1-c1cc(OC)ccc1F (single isomer, unassigned) [Example 69.5, (3R)-3-(3-(((2-(Butyloxy)-2′-fluoro-5′-(methyloxy)-1,1′-biphenyl-4-yl)methyl)oxy)phenyl)-4-cyclopropylbutanoic acid or (3S)-3-(3-(((2-(butyloxy)-2′-fluoro-5′-(methyloxy)-1,1′-biphenyl-4-yl)methyl)oxy)phenyl)-4-cyclopropylbutanoic acid]

Row | SMILES | pEC50
21 | COc1ccc(F)c(-c2ccc(COc3cccc([C@H](CC(=O)O)C4CC4)c3F)cc2[C@H]2CCCC2(C)C)c1 (single isomer, unassigned) [Example 99.3] | 5.00 to 6.00
22 | COc1ccc(F)c(-c2ccc(COc3cccc([C@@H](CC(=O)O)C4CC4)c3)cc2[C@H](F)C(C)(C)C)c1 (single isomer, unassigned) [Example 66.30] | 6.00 to 7.00
23 | COc1ccc(F)c(-c2ccc(COc3cccc(C[C@H](C)C(=O)O)c3)cc2C2=CCCC2(C)C)c1 (single isomer, unassigned) [Example 63.1, (2S)-3-(3-(((2-(5,5-Dimethyl-1-cyclopenten-1-yl)-2′-fluoro-5′-(methyloxy)-1,1′-biphenyl-4-yl)methyl)oxy)phenyl)-2-methylpropanoic acid or (2R)-3-(3-(((2-(5,5-dimethyl-1-cyclopenten-1-yl)-2′-fluoro-5′-(methyloxy)-1,1′-biphenyl-4-yl)methyl)oxy)phenyl)-2-methylpropanoic acid] | 6.00 to 7.00
24 | COc1ccc(F)c(-c2ccc(COc3cccc([C@@H](CC(=O)O)CC4CC4)c3)cc2[S+]([O-])C(C)C)c1 (single isomer, unassigned) [Example 69.26, (R)-4-Cyclopropyl-3-{3-[2′-fluoro-5′-methoxy-2-(propane-2-sulfinyl)-biphenyl-4-ylmethoxy]-phenyl}-butyric acid or (S)-4-cyclopropyl-3-{3-[2′-fluoro-5′-methoxy-2-(propane-2-sulfinyl)-biphenyl-4-ylmethoxy]-phenyl}-butyric acid] | 5.00 to 6.00
